Reference: patent publication US20200157135A1, “SIDE-CHAIN MODIFIED ERGOSTEROL AND STIGMASTEROL DERIVATIVES AS LIVER X RECEPTOR MODULATORS” (Ospedale San Raffaele srl, priority 2017, published 2020)
Like-named read-outs stand apart in the source and are kept apart here.

Assays:
SCD1 = test: qPCR of SCD1 expression in PMA-differentiated U937 cells; assay type: cell-based, human; settings: U937 differentiated with PMA 72 h; 10 μM, 6 hours
Procedure: (§1) U937 cells differentiated with PMA for 72 hours were treated with T0901317 (10 μM), 22R—HC (3) or with the tested compound (10 μM). […] (n=3/group). *p<0.05, **p<0.01, ***p<0.001.
(§2) LXR agonists induce the expression of target genes, which are involved in cholesterol homeostasis, particularly in the reverse cholesterol transport pathway.43 Indeed, LXR agonists induce the expression of ABCA1 both in macrophages and in many tissues of the periphery such as the intestine.44 Moreover, ABCA1 regulates cholesterol efflux to APOAI acceptors.45 In the liver, LXR activation promotes the biosynthesis of fatty acids, a process also termed as de novo lipogenesis by inducing the expression of the master regulator of hepatic lipogenesis sterol-regulatory element-binding protein 1C (SREBP-1c), as well as several downstream genes in the SREBP-1c pathway, including steroyl CoA desaturase 1 (SCD1) and fatty acid synthase (FASN).43 Therefore, it was investigated, by quantitative PCR (qPCR), the expression of ABCA1, SREBP1c, FASN, and SCD1, by using RNA from monocytic U937 cells (FIG. 3) and from hepatic HepG2 cells (FIG. 4) stimulated with our compounds, the non-steroidal agonist T0901317 or the endogenous ligand 22R—HC (3) as positive controls. […] Then, the induction of genes involved in the lipogenesis using the hepatic cell line HepG2. 43,22 was evaluated. […] Over the time, indeed, substantial efforts have been dedicated to the identification of LXR ligands able to turning on ABC transporter genes, without affecting lipogenic genes levels. This task is still one of the major challenge to the discovery of a clinically useful LXR modulator for atherosclerosis.
(§3) Quantitative Real-Time-PCR. U937 cell line was differentiated in foam macrophages with phorbol 12-myristate 13-acetate (PMA) 10 ng/ml (Sigma) for 72 hours at 37° C. in […] at the concentration of 3×10^6 cells in 10 ml RPMI 10% FBS. At day 3 nuclear receptor ligands were added for 6 hours. HepG2 cells were treated with the ligands as described by Quinet et al.22 Total RNA was purified by TRIZOL (Invitrogen, Carlsbad, Calif., USA). Reverse transcription was performed incubating 2 μg of total RNA 1 hour at 42° C. with MLV-reverse transcriptase (Promega). Quantitative PCR was performed using Sybr Green Master Mix (Applied Biosystems) and real-time PCR (Viia 7 Real Time PCR System, Applied Biosystems). All PCR reactions were done in triplicate. The comparative Ct method was used to quantify transcripts that were normalized for human GAPDH. the following primer pairs were used: […]

hLXRβ = molecular target: T1, hLXRβ (Homo sapiens, UniProt P55055); test: luciferase assay with GAL-4 chimeric hLXRβ receptor in human embryonic kidney 293 cells; assay type: cell-based; settings: for EC50: GAL4-hLXRβ luciferase, HEK293, dose-response 32-1 μM, mean of three-five independent experiments, read-out: LXRβ EC50 (μM) ± SD; for Emax: HEK293, 24 h
T1 sequence (P55055 222-460 limits assumed): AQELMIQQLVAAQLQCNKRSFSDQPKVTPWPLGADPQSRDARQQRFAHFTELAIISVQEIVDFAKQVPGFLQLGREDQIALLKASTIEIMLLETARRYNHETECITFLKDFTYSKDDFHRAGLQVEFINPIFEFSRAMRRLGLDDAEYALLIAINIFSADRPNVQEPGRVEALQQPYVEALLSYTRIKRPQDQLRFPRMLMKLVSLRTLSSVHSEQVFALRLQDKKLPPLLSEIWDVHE
Procedure: (§4) All the synthesized compounds were first tested for their ability to activate LXRs by using luciferase assays with GAL-4 chimeric receptors. These were performed by co-transfecting plasmids encoding hLXRα- and β-binding domains fused to GAL-4, with the respective responsive element conjugated with the luciferase reporter gene into the human embryonic kidney 293 cells.
(§5) Cell Culture and Co-transfection Assays. Human embryonic Kidney 293 cells (American Type Culture Collection) were cultured in Dulbecco's Modified Eagle's medium containing 10% of fetal bovine serum at 37° C. in humidified atmosphere of 5% CO2. HEK293 cells (4×10^4 cells per well) were transiently transfected in 48 well plate with the reporter plasmids pMH100X4-TK-luc (100 ng/well), Renilla (22 ng/well) together with 100 ng/well of pCMX-Gal4-RXR, pCMX-Gal4-PPAR-γ, pCMX-Gal4-PXR, pFA-CMV-FXR pCMX-Gal4-LXR-α or pCMX-Gal4-LXR-β plasmids using X-tremeGENE 9 DNA Transfection Reagent (Roche). Six hours after transfection, the cells were treated with the appropriate compound for 24 hours. Luciferase activities were analyzed by luciferase Dual Reporter Assay Systems (Promega) according to the manufacturer's protocol. GAL4-LXRs, GAL4-PPAR-γ, GAL4-RXR and TK-MHC100-luc plasmids were described in Villablanca et al.49 GAL4-PXR was a kind gift of Dr. Enrique Sainz (The Scripps Research Institute, La Jolla, USA). GAL4-FXR was a kind gift of Dr. Daniel Merk (Goethe-University Frankfurt am Main). The results obtained by luciferase assays and reported in Table 1 are from three to five independent experiments.
(§6) Statistical analysis. Data are expressed as mean±SEM and were analyzed for significance by ANOVA with Dunnet's multiple comparison tests. The analysis was performed with Prism software. Data in Table 1 are expressed as EC50±SD. In particular, the standard deviations were obtained by calculating the mean of the EC50 of each experiment (three to five independent experiments). The efficacy (%) of the compounds was calculated as the percentage of the compound effect, in terms of LXRα or β activation, versus 8 μM of 22R—HC±SD. The analyses were performed with Prism software.

SREBP1c [1] = test: qPCR of SREBP1c expression in PMA-differentiated U937 cells; assay type: cell-based, human; settings: U937 differentiated with PMA 72 h; 10 μM, 6 hours
Procedure: as §1, §2, §3

TNFα = test: qPCR of TNFα expression in differentiated U937 cells treated with LPS; assay type: cell-based, human; settings: differentiated U937, 6 hours, 10 μM in combination with LPS (100 ng/ml)
Procedure: (§7) U937 cells differentiated with PMA for 72 hours were treated with LPS (100 ng/ml) in combination with T0901317 (10 μM) or with the title compounds (10 μM). […] (n=3/group). *p<0.05, **p<0.01, ***p<0.001.
as §3

ABCA1 = test: qPCR of ABCA1 expression in PMA-differentiated U937 cells; assay type: cell-based, human; settings: U937 differentiated with PMA 72 h; 10 μM, 6 hours
Procedure: as §1, §2, §3

MCP-1/CCL2 = test: qPCR of CCL2 expression in differentiated U937 cells treated with LPS; assay type: cell-based, human; settings: differentiated U937, 6 hours, 10 μM in combination with LPS (100 ng/ml)
Procedure: as §7, §3

hLXRα = molecular target: T2, hLXRα (Homo sapiens, UniProt Q13133); test: luciferase assay with GAL-4 chimeric hLXRα receptor in human embryonic kidney 293 cells; assay type: cell-based; settings: for EC50: GAL4-hLXRα luciferase, HEK293, dose-response 32-1 μM, mean of three-five independent experiments, read-out: LXRα EC50 (μM) ± SD; for Emax: HEK293, 24 h, read-out: LXRα Efficacy (%) ± SD; for LXR isoform selectivity profile: LXRα versus LXRβ, GAL4 luciferase assays
T2 sequence (Q13133 209-447 limits assumed): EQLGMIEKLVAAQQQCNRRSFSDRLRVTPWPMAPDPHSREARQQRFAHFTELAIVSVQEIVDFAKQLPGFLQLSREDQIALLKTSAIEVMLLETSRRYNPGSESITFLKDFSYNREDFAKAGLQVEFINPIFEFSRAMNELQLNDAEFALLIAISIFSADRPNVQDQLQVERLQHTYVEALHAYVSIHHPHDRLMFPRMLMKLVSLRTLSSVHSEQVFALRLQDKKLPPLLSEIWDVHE
Procedure: as §4, §5, §6

SREBP1c [2] = test: qPCR of SREBP1c expression in HepG2 cells; assay type: cell-based, human; settings: 10 μM
Procedure: HepG2 cells were treated with T0901317 (10 μM), 22R—HC (3) (10 μM) or with the tested compound (10 μM). […] (n=3/group). *p<0.05, **p<0.01, ***p<0.001.
LXR agonists induce the expression of target genes, which are involved in cholesterol homeostasis, particularly in the reverse cholesterol transport pathway.43 Indeed, LXR agonists induce the expression of ABCA1 both in macrophages and in many tissues of the periphery such as the intestine.44 Moreover, ABCA1 regulates cholesterol efflux to APOAI acceptors.45 In the liver, LXR activation promotes the biosynthesis of fatty acids, a process also termed as de novo lipogenesis by inducing the expression of the master regulator of hepatic lipogenesis sterol-regulatory element-binding protein 1C (SREBP-1c), as well as several downstream genes in the SREBP-1c pathway, including steroyl CoA desaturase 1 (SCD1) and fatty acid synthase (FASN).43 Therefore, it was investigated, by quantitative PCR (qPCR), the expression of ABCA1, SREBP1c, FASN, and SCD1, by using RNA from monocytic U937 cells (FIG. 3) and from hepatic HepG2 cells (FIG. 4) stimulated with our compounds, the non-steroidal agonist T0901317 or the endogenous ligand 22R—HC (3) as positive controls. […] 43,22 was evaluated. […]
Quantitative Real-Time-PCR. […] The comparative Ct method was used to quantify transcripts that were normalized for human GAPDH. the following primer pairs were used: […]

[3] = % of compound effect versus 8 μM of 22R-HC

Row | Compound | EC50 (hLXRβ) [µM] | inhibition of CCL2 expression (MCP-1/CCL2) | EC50 (hLXRα) [µM] | Emax (hLXRα; [3]) [%] | LXR isoform selectivity profile (hLXRα) | further results
1 | CC[C@@H](C(C)C)[C@H](O)C[C@@H](C)[C@H]1CC[C@H]2[C@@H]3CC=C4C[C@@H](O)CC[C@]4(C)[C@H]3CC[C@]12C [Compound 19, (23R)-3β-Stigmast-5-ene-3,23-diol] | 2.7 ± 1.16 | same grade of potency of the positive control T0901317 | 3.2 ± 0.54 | – | – | SCD1 expression (SCD1): poor activators of SREBP1c and SCD1; SREBP-1c up-regulation (SREBP1c [1]): poor activators of SREBP1c and SCD1; inhibition of TNFα expression (TNFα): the most active; ABCA1 expression (ABCA1): strong induction of ABCA1 expression
2 | CC(C)[C@@H](C)C(=O)C[C@@H](C)[C@H]1CC[C@H]2C3=CC=C4C[C@@H](O)CC[C@]4(C)[C@H]3CC[C@]12C [Compound 27, 3β-Hydroxyergost-5,7-diene-23-one] | – | – | 5.58 ± 0.3 | 151 ± 4.8 | selective LXRα agonists | –
3 | CC(C)[C@@H](C)[C@@H]1O[C@H]1[C@@H](C)[C@H]1CC[C@H]2C3=CC=C4C[C@@H](O)CC[C@]4(C)[C@H]3CC[C@]12C [Compound 16, (22S,23S)-22,23-Epoxyergosta-5,7-diene-3β-ol] | 1.96 ± 0.05 | same grade of potency of the positive control T0901317 | 1.5 ± 0.12 | 51.7 ± 3.8 | non-selective and poorly preferential LXRα agonists | Emax (hLXRβ; % of compound effect versus 8 μM of 22R-HC, read-out: LXRβ Efficacy (%) ± SD): 48.5 ± 13%; SREBP-1c up-regulation (SREBP1c [2]): significant up-regulation of SREBP-1c
4 | CC(C)[C@@H](C)[C@H](O)C[C@@H](C)[C@H]1CC[C@H]2C3=CC=C4C[C@@H](O)CC[C@]4(C)[C@H]3CC[C@]12C [Compound 23, (23R)-3β-Ergost-5,7-diene-3,23-diol] | – | – | 15.8 ± 0.65 | 63.9 ± 26.9 | – | –
5 | C=C[C@@](O)(CC[C@@H](C)C1CCC2C3CC=C4C[C@@H](O)CC[C@]4(C)C3CC[C@@]21C)C(C)C (stereo partly drawn) [Compound 12, 24(S)-saringosterol, reference compound] | – | – | – | – | – | Emax (hLXRβ; read-out: LXRβ Efficacy (%) ± SD, % of compound effect versus 8 μM of 22R-HC): 61 ± 17.4%; beta/alfa efficacy ratio (hLXRβ; LXRβ efficacy over LXRα efficacy): 1.4; Emax (hLXRα): 43.4 ± 17.6%
